The source made the active and inactive calls. The rule behind the calls is not given here.

The data set has as its system CCRIS mutagenicity, Ames/micronucleus/aberration tests. In words: CCRIS mutagenicity studies.

In the case of `CCC(C)=O`, the mutagenic call was “inactive; negative” (Test System: AMES SALMONELLA TYPHIMURIUM, Strain/Indicator: TA97, Metabolic Activation: HAMSTER, LIVER, S-9, AROCLOR 1254 (10 OR 30%), Method: PREINCUBATION); “inactive; negative” (Test System: AMES SALMONELLA TYPHIMURIUM, Strain/Indicator: TA97, Metabolic Activation: NONE, Method: PREINCUBATION); “inactive; negative” (Test System: AMES SALMONELLA TYPHIMURIUM, Strain/Indicator: TA97, Metabolic Activation: RAT, LIVER, S-9, AROCLOR 1254 (10 OR 30%), Method: PREINCUBATION); “inactive; negative” (Test System: AMES SALMONELLA TYPHIMURIUM, Strain/Indicator: TA98, Metabolic Activation: HAMSTER, LIVER, S-9, AROCLOR 1254 (10 OR 30%), Method: PREINCUBATION); “inactive; negative” (Test System: AMES SALMONELLA TYPHIMURIUM, Strain/Indicator: TA98, Metabolic Activation: RAT, LIVER, S-9, AROCLOR 1254 (10 OR 30%), Method: PREINCUBATION); “inactive; negative” (Test System: AMES SALMONELLA TYPHIMURIUM, Strain/Indicator: TA98, Metabolic Activation: RAT, LIVER, S-9, AROCLOR 1254, Method: PREINCUBATION). The mutagenic call was “inactive; negative” (Test System: AMES SALMONELLA TYPHIMURIUM, Strain/Indicator: TA98, Metabolic Activation: RAT, LIVER, S-9, KC 500, Method: PREINCUBATION); “inactive; negative” (Test System: AMES SALMONELLA TYPHIMURIUM, Strain/Indicator: TA98, Metabolic Activation: RAT, LIVER, S-9, PHENOBARBITAL AND BETA-NAPHTHOFLAVONE, Method: PREINCUBATION); “inactive; negative” (Test System: AMES SALMONELLA TYPHIMURIUM, Strain/Indicator: TA100, Metabolic Activation: HAMSTER, LIVER, S-9, AROCLOR 1254 (10 OR 30%), Method: PREINCUBATION); “inactive; negative” (Test System: AMES SALMONELLA TYPHIMURIUM, Strain/Indicator: TA100, Metabolic Activation: RAT, LIVER, S-9, AROCLOR 1254 (10 OR 30%), Method: PREINCUBATION); “inactive; negative” (Test System: AMES SALMONELLA TYPHIMURIUM, Strain/Indicator: TA100, Metabolic Activation: RAT, LIVER, S-9, AROCLOR 1254, Method: PREINCUBATION); “inactive; negative” (Test System: AMES SALMONELLA TYPHIMURIUM, Strain/Indicator: TA100, Metabolic Activation: RAT, LIVER, S-9, KC 500, Method: PREINCUBATION). The mutagenic call was “inactive; negative” (Test System: AMES SALMONELLA TYPHIMURIUM, Strain/Indicator: TA100, Metabolic Activation: RAT, LIVER, S-9, PHENOBARBITAL AND BETA-NAPHTHOFLAVONE, Method: PREINCUBATION); “inactive; negative” (Test System: AMES SALMONELLA TYPHIMURIUM, Strain/Indicator: TA102, Metabolic Activation: NONE, Method: PREINCUBATION); “inactive; negative” (Test System: AMES SALMONELLA TYPHIMURIUM, Strain/Indicator: TA102, Metabolic Activation: RAT, LIVER, S-9, PHENOBARBITAL AND BETA-NAPHTHOFLAVONE, Method: PREINCUBATION); “inactive; negative” (Test System: AMES SALMONELLA TYPHIMURIUM, Strain/Indicator: TA104, Metabolic Activation: NONE, Method: PREINCUBATION); “inactive; negative” (Test System: AMES SALMONELLA TYPHIMURIUM, Strain/Indicator: TA104, Metabolic Activation: RAT, LIVER, S-9, PHENOBARBITAL AND BETA-NAPHTHOFLAVONE, Method: PREINCUBATION); “inactive; negative” (Test System: AMES SALMONELLA TYPHIMURIUM, Strain/Indicator: TA1535, Metabolic Activation: HAMSTER, LIVER, S-9, AROCLOR 1254 (10 OR 30%), Method: PREINCUBATION). The mutagenic call runs as follows: (Test System: AMES SALMONELLA TYPHIMURIUM, Strain/Indicator: TA1535, Metabolic Activation: RAT, LIVER, S-9, AROCLOR 1254 (10 OR 30%), Method: PREINCUBATION) “inactive; negative”; (Test System: AMES SALMONELLA TYPHIMURIUM, Strain/Indicator: TA1535, Metabolic Activation: RAT, LIVER, S-9, AROCLOR 1254, Method: PREINCUBATION) “inactive; negative”; (Test System: AMES SALMONELLA TYPHIMURIUM, Strain/Indicator: TA1535, Metabolic Activation: RAT, LIVER, S-9, KC 500, Method: PREINCUBATION) “inactive; negative”; (Test System: AMES SALMONELLA TYPHIMURIUM, Strain/Indicator: TA1535, Metabolic Activation: RAT, LIVER, S-9, PHENOBARBITAL AND BETA-NAPHTHOFLAVONE, Method: PREINCUBATION) “inactive; negative”; (Test System: AMES SALMONELLA TYPHIMURIUM, Strain/Indicator: TA1537, Metabolic Activation: HAMSTER, LIVER, S-9, AROCLOR 1254 (30%), Method: PREINCUBATION) “inactive; negative”; (Test System: AMES SALMONELLA TYPHIMURIUM, Strain/Indicator: TA1537, Metabolic Activation: RAT, LIVER, S-9, AROCLOR 1254 (30%), Method: PREINCUBATION) “inactive; negative”. Also, the mutagenic call (Test System: AMES SALMONELLA TYPHIMURIUM, Strain/Indicator: TA1537, Metabolic Activation: RAT, LIVER, S-9, AROCLOR 1254, Method: PREINCUBATION) was “inactive; negative”; the mutagenic call (Test System: AMES SALMONELLA TYPHIMURIUM, Strain/Indicator: TA1537, Metabolic Activation: RAT, LIVER, S-9, KC 500, Method: PREINCUBATION) is “inactive; negative”; the mutagenic call (Test System: AMES SALMONELLA TYPHIMURIUM, Strain/Indicator: TA1537, Metabolic Activation: RAT, LIVER, S-9, PHENOBARBITAL AND BETA-NAPHTHOFLAVONE, Method: PREINCUBATION) is “inactive; negative”; the mutagenic call (Test System: AMES SALMONELLA TYPHIMURIUM, Strain/Indicator: TA1538, Metabolic Activation: NONE, Method: PREINCUBATION) is “inactive; negative”; the mutagenic call (Test System: AMES SALMONELLA TYPHIMURIUM, Strain/Indicator: TA1538, Metabolic Activation: RAT, LIVER, S-9, AROCLOR 1254, Method: PREINCUBATION) is “inactive; negative”; the mutagenic call (Test System: AMES SALMONELLA TYPHIMURIUM, Strain/Indicator: TA1538, Metabolic Activation: RAT, LIVER, S-9, KC 500, Method: PREINCUBATION) was “inactive; negative”. Besides, the mutagenic call reads like this: (Test System: E. COLI, Strain/Indicator: WP2UVRA/PKM101, Metabolic Activation: NONE, Method: PREINCUBATION) “inactive; negative”; (Test System: E. COLI, Strain/Indicator: WP2UVRA/PKM101, Metabolic Activation: RAT, LIVER, S-9, PHENOBARBITAL AND BETA-NAPHTHOFLAVONE, Method: PREINCUBATION) “inactive; negative”; (Test System: E. COLI, Strain/Indicator: WP2 UVRA, Metabolic Activation: NONE, Method: PREINCUBATION) “inactive; negative”; (Test System: E. COLI, Strain/Indicator: WP2UVRA, Metabolic Activation: NONE, Method: PREINCUBATION) “inactive; negative”; (Test System: E. COLI, Strain/Indicator: WP2 UVRA, Metabolic Activation: RAT, LIVER, S-9, KC 500, Method: PREINCUBATION) “inactive; negative”; (Test System: E. COLI, Strain/Indicator: WP2UVRA, Metabolic Activation: RAT, LIVER, S-9, PHENOBARBITAL AND BETA-NAPHTHOFLAVONE, Method: PREINCUBATION) “inactive; negative”. Besides, the mutagenic call (Test System: MOUSE LYMPHOMA, Strain/Indicator: L5178Y (TK+/TK-), Metabolic Activation: NONE, Method: SUSPENSION/PLATE) is “inactive; negative” and the mutagenic call (Test System: MOUSE LYMPHOMA, Strain/Indicator: L5178Y (TK+/TK-), Metabolic Activation: RAT, LIVER, S-9, AROCLOR 1242 AND AROCLOR 1254 (2:1), Method: SUSPENSION/PLATE) is “inactive; negative”.
Turning to `Cn1c(N)nc2c3cnccc3ccc21`, the mutagenic call (Test System: AMES SALMONELLA TYPHIMURIUM, Strain/Indicator: TA98, Metabolic Activation: RAT, LIVER, S-9, AROCLOR 1254, Method: STANDARD PLATE) was “active; positive”.

(Values after PubChem BioAssay AID1259407 (Chemical Carcinogenesis Research Information System (CCRIS), 2018).)
